According to patent US20120171229A1, “SYNTHETIC NANOCARRIERS WITH REACTIVE GROUPS THAT RELEASE BIOLOGICALLY ACTIVE AGENTS” (Selecta Biosciences, Inc., priority 2010, published 2012):

Assay: Release by thiol addition and hydride reduction (TLC)
Format: physicochemical
Conditions: water with a drop of acetic acid, 2 hours
Description: A portion of the amide was dissolved in water with a drop of acetic acid. This yellow solution was divided into two portions. One portion was treated with sodium dithionite, a reducing agent, and the other was treated with 2-mercaptoethanol. After 2 hours, the samples were diluted with water and extracted with ethyl acetate.

In the case of `CN1CCN(C(=O)CC(C)(C)C2=CC(=O)c3ccccc3C2=O)CC1` [Example 8], the “Release by thiol addition, TLC result” value (2-mercaptoethanol) is reported as “the amide had been consumed with a colorless, non-polar product (lactone) being formed” and the “Release by hydride reduction, TLC result” value (sodium dithionite) is reported as “the amide had been consumed with a colorless, non-polar product (lactone) being formed”.
